The results in this text go back to US20250064947A1, “CYTOTOXICITY TARGETING CHIMERAS FOR FIBROBLAST ACTIVATION PROTEIN-EXPRESSING CELLS” (Glaxosmithkline Intellectual Property Development Limited, priority 2022, published 2025).

The test deals with T1, FAP (Homo sapiens, UniProt Q12884).
T1 construct: Target cells: WI-38 cells (typically 1000-20,000 cells per well); endogenous in cells; host or cells: WI-38 cells
T1 sequence (Q12884 1-760): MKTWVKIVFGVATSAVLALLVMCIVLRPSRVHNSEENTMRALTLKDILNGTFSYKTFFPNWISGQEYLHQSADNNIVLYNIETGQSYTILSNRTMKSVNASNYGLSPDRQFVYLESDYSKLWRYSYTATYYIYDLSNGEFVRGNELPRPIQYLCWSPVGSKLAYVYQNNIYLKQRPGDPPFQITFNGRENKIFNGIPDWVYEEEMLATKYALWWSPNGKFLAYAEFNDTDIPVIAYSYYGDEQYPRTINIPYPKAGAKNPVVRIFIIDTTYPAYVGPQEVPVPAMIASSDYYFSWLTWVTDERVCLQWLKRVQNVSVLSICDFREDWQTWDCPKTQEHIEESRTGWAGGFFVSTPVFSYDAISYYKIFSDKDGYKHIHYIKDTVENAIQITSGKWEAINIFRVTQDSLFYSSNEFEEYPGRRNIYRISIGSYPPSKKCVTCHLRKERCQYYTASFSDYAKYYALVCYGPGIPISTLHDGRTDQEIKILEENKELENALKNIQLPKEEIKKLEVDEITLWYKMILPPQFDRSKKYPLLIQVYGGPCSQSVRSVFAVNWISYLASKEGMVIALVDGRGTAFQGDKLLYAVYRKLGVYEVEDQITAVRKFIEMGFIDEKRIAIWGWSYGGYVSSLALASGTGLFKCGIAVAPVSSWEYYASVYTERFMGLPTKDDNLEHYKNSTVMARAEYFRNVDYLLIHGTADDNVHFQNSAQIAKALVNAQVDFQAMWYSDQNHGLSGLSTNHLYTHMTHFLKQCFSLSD
As to the kind of experiment: Antibody dependent cellular cytotoxicity (ADCC) reporter assay. The settings on record: WI-38 target cells; Jurkat FcγRIIIa NFAT-luciferase reporter cells; with anti-cotinine antibody (SEQ ID NO: 11/12); 12-18 hours; average if more than one run; read-out: ADCC Reporter Assay pEC50 (converted). It is filed as cell-based. Here is the method: An antibody dependent cellular cytotoxicity (ADCC) reporter assay was conducted using the following four assay components: (i) ARM compound of Formula (I) targeting FAP (concentrations ranging from […]); (ii) anti-cotinine antibody having a heavy chain sequence of SEQ ID NO: 11 and a light chain sequence of SEQ ID NO: 12 (rabbit variable region with human IgG1 Fc domain containing DE mutation (S239D/I332E)) (concentrations ranging from 0.01 μg/mL 200 μg/mL); (iii) Target cells: WI-38 cells (typically 1000-20,000 cells per well); and (iv) Reporter cells—Jurkat cells engineered to express FcγRIIIa with a reporter gene luciferase under the control of the NFAT promoter (typically 3000-75,000 cells per well). Reagents were combined in final volume of 20 μL in 384—well tissue culture treated plate. All four assay components were incubated together for about 12-18 hours. Thereafter, BioGlo Detection reagent (Promega) was added to the wells to lyse the cells and provide a substrate for the luciferase reporter protein.
Luminescence signal was measured on a microplate reader capable of measuring luminescence and signal:background was calculated by dividing the signal of a test well by the signal obtained when no compound of formula (I) was included in the assay. EC50 calculations were done using Graphpad Prism Software, specifically a nonlinear regression curve fit (Y=Bottom+(Top−Bottom)/(1+10^((Log EC50−X)*HillSlope))).
ARMs compounds of Formula (I) were tested for ADCC activity in the above assay in one or more experimental runs and the results are shown in Table 3 below. Potency of the compounds of Formula (I) is reported as a pEC50 values. The pEC50 value is the negative log of the EC50 value, wherein the EC50 value is half maximal effective concentration measured in molar (M). For compounds tested in more than one experimental run, the pEC50 value is reported as an average.
On the technique in general: Reporter assays use an easily measured gene product as a stand-in for the process of interest.
As to `CN1C(=O)C[C@H](C(=O)NCCOCCOCCOCCOCCOCCOCCOCCOCCOCCOCCOCCOCCOCCOCCOCCNC(=O)COc2ccc3c(C(=O)NCC(=O)N4CC(F)(F)C[C@H]4C#N)ccnc3c2)[C@H]1c1cccnc1` [Example 11, N-(2-((S)-2-cyano-4,4-difluoropyrrolidin-1-yl)-2-oxoethyl)-7-((1-((2S,3S)-1-methyl-5-oxo-2-(pyridin-3-yl)pyrrolidin-3-yl)-1,51-dioxo-5,8,11,14,17,20,23,26,29,32,35,38,41,44,47-pentadecaoxa-2,50-diazadopentacontan-52-yl)oxy)quinoline-4-carboxamide], the EC50 is > 1000 nM.
In the case of `CN1C(=O)C[C@H](C(=O)NCCOCCOCCOCCOCCOCCOCCOCCOCCOCCOCCOCCOCCOCCOCCOCCOCCOCCOCCOCCOCCOCCOCCOCCNC(=O)COc2ccc3c(C(=O)NCC(=O)N4CCC[C@H]4C#N)ccnc3c2)[C@H]1c1cccnc1` [Example 12, N-(2-((S)-2-cyanopyrrolidin-1-yl)-2-oxoethyl)-7-((1-((2S,3S)-1-methyl-5-oxo-2-(pyridin-3-yl)pyrrolidin-3-yl)-1,75-dioxo-5,8,11,14,17,20,23,26,29,32,35,38,41,44,47,50,53,56,59,62,65,68,71-tricosaoxa-2,74-diazahexaheptacontan-76-yl)oxy)quinoline-4-carboxamide] it was 1 nM; in that of `CN1C(=O)C[C@H](C(=O)NCCOCCOCCOCCOCCOCCOCCOCCOCCOCCOCCOCCOCCOCCOCCOCCOCCOCCOCCOCCOCCOCCOCCOCCNC(=O)COc2ccc3c(C(=O)NCC(=O)N4CC(F)(F)C[C@H]4C#N)ccnc3c2)[C@H]1c1cccnc1` [Example 13, N-(2-((S)-2-cyano-4,4-difluoropyrrolidin-1-yl)-2-oxoethyl)-7-((1-((2S,3S)-1-methyl-5-oxo-2-(pyridin-3-yl)pyrrolidin-3-yl)-1,75-dioxo-5,8,11,14,17,20,23,26,29,32,35,38,41,44,47,50,53,56,59,62,65,68,71-tricosaoxa-2,74-diazahexaheptacontan-76-yl)oxy)quinoline-4-carboxamide], 1 nM.
